Laboratory results taken from patent publication EP3494850B1, “WET WIPE WITH HYDROXYACETOPHENON” (Dr. Schumacher GmbH, priority 2017, dated 2019).

Tested on: Haut der Probanden
Assay: Patch test for skin tolerance on 50 subjects
Type: in vivo
Conditions: 48 h under occlusion on the back, read at 48 h and 72 h (erythema, scaling, fissures)
Text: Zur Prüfung der Hautverträglichkeit des Tränkungsmittels, mit dem erfindungsgemäße Feuchttücher getränkt sind, wird ein Patch-Test an 50 Probanden durchgeführt. Mit einem Patch-Test können dermatologische und kosmetische Produkte auf ihr irritatives Potential untersucht werden. Bei den 50 ausgewählten Personen im Alter zwischen 18 und 69 Jahren handelte es sich um 28 Hautgesunde, 2 Atopiker, 2 Allergiker und 18 Personen mit empfindlicher Haut.
Für den Patch-Test wurde eine gemäß der in Tabelle 1 (Beispiel 1) angegebenen Rahmenrezeptur zusammengesetzte O/W-Emulsion für 48 Stunden unverdünnt auf den Rücken der Probanden mit Hilfe von quadratischen Kunststoffkammern (allergEAZE® clear Patch Test Chambers; SmartPractice®, Phoenix, AZ) unter Okklusion appliziert. Als Positivkontrolle diente der Modellschadstoff Natriumlaurylsulfat (SDS) in einer Konzentration von 1 % in Wasser. Als negative Kontrolle diente Wasser.
Die Bewertung der Testreaktionen erfolgte nach 48 Stunden (30 Minuten nach der Entfernung der Okklusion) sowie nach 72 Stunden, wobei die Haut der Probanden jeweils hinsichtlich Erythem, Schuppung und Fissuren untersucht wurde.

**Q.** With CCCCCCCCCCCCOS(=O)(=O)O [SDS, Natriumlaurylsulfat] as the compound, how does the “Testpersonen mit Reaktion im Patch-Test” value read?
**A.** 14 Testpersonen
